Data published in patent US20160201045A1, “Endo-xylanase and Coding Gene and Use Thereof” (SHANGHAI INSTITUTES FOR BIOLOGICAL SCIENCES CHINESE ACADEMY …, priority 2013, published 2016).

B1: Xyl7R3: fragment of Xyl7 consisting of amino acids 19-272 of SEQ ID NO:2 (protein)
chain: AQGPTWTTSTIQAYNGYDYELWNQNNAGTVSMKLTGDNGSGASAVGGTFTATWSNTQNVLFRSGKKWGSSSNQNHTQIGNMSINFAATWSSTDNVKMLGVYGWAYFTSANVPTKQENGTNASFSNQIEYYIIQDRGSYNPASGGTNAKKYGSATIDGIAYDFYVCDRINQPMLTGNGNFKQFFSVPQSASAHRTSGTISVSQHFNKWHELGMKMDGPLYEVAMKVESYTGSGSSNGSATVTKNLLTIGGTTPTP
modifications: Intestinal tract metagenome of termite
B2: Xyl7R2: fragment of Xyl7 consisting of amino acids 19-267 of SEQ ID NO:2 (protein)
chain: AQGPTWTTSTIQAYNGYDYELWNQNNAGTVSMKLTGDNGSGASAVGGTFTATWSNTQNVLFRSGKKWGSSSNQNHTQIGNMSINFAATWSSTDNVKMLGVYGWAYFTSANVPTKQENGTNASFSNQIEYYIIQDRGSYNPASGGTNAKKYGSATIDGIAYDFYVCDRINQPMLTGNGNFKQFFSVPQSASAHRTSGTISVSQHFNKWHELGMKMDGPLYEVAMKVESYTGSGSSNGSATVTKNLLTIGG
modifications: Intestinal tract metagenome of termite

Legend:
Xyl7 = assay: Effect of different chemical agents and metal ions on the enzymatic activity of Xyl7; type: biochemical, microorganisms in termite gut; conditions: for Relative Activity (%) of Xyl7: Metal Ion or Chemical Agent 10 mM, enzyme without agent = 100%; for action on Xyl7 (in words) / increase for the activity of the enzyme: 10 mmol/L
Experimental: (§1) In a 100 μl reaction system, birch xylan was added to a final concentration of 1% (w/w), and Na2HPO4/NaH2PO4 buffer (pH7.0) was added to a final concentration of 100 mM. A suitable amount of enzyme solution diluted by the abovementioned buffer was added to the reaction system for reaction at 50[…] for 10 minutes. 100 μl DNS were added to stop the reaction. For the control, 100 μl DNS were firstly added to the above reaction system before adding the enzyme solution. The reaction mixtures were subjected to a boiled water bath for 5 minutes to develop color. Absorbance value at 540 nm was detected by a microplate reader. After subtracting the absorbance value of the control from that of the sample, the enzymatic activity unit (U) was calculated based on the standard curve.
Various compounds were added into the reaction system to a final concentration of 10 mmol/L. Enzymatic activity was tested according to the above standard enzymatic activity detection steps. The specific activity value of the enzyme without treated by any chemical agent or metal ion was used as a reference value and its relative activity was defined as 100%.

[1] = Standard enzymatic activity detection (DNS method) on birch xylan; type: biochemical; conditions: standard steps: 1% birch xylan, pH7.0, 50, 10 minutes
Experimental: Enzymatic activity of the endo-1,4-β-xylanase was tested by a DNS method as follows:
10 g NaOH were weighed and dissolved in about 400 ml ddH2O. 10 g dinitrosalicylic acid, 2 g phenol, 0.5 g anhydrous sodium sulfite and 200 g potassium sodium tartrate tetrahydrate were weighed and dissolved in about 300 ml ddH2O. The two solutions were mixed, diluted to 1 liter and preserved in dark.
100 μl DNS were added into each of the above standard samples. The mixtures were subjected to boiled water bath for 5 minutes for developing color. Absorbance value at 540 nm was detected by a microplate reader. Standard sample 1 was a blank control. The absorbance value of the blank control was subtracted from that of each sample and then the standard curve was plotted.
as §1
Definition of enzymatic activity unit (U): 1U refers to the amount of enzyme required for catalytically hydrolyzing xylan to produce 1 μmol xylose.
Definition of specific activity unit: enzymatic activity of 1 mg protein (U/mg).
Various substrates with a final concentration of 2% (w/w) were treated by a suitable amount of enzymes at pH7.0 and 50[…] for 10 minutes. Enzymatic activity was tested according to the above standard enzymatic activity detection steps. […] No detectable enzymatic activity was found for the other test substrates. […]

[2] = Detection on the optimum temperature; type: biochemical; conditions: compared with Xyl7
Experimental: as §1
Enzymatic activity was detected according the above standard enzymatic activity detection steps at pH 7.0 and a temperature in the range of 25-80° C. The optimum temperature of Xyl7 was in the range of 50-55° C., with an activity at 50[…] slightly higher than that at 55[…]. Thus, the specific activity value of the enzyme at 50[…] was used as a reference value and its relative activity was defined as 100%. The relative activity of the enzyme at each temperature was a ratio between the specific activity value of the enzyme at each temperature and the reference value.

Molecule	Relative Activity (%) of Xyl7 (Xyl7)	action on Xyl7 (in words) (Xyl7)	other results
[Al+3] [Al^3+]	77.68 ± 2.32%		
[Ba+2] [Ba^2+]	90.71 ± 1.94%		
[Ca+2] [Ca^2+]	90.1 ± 12.82%		
[Co+2] [Co^2+]	109.14 ± 3.45%	could activate	
[Cu+2] [Cu^2+]	108.69 ± 2.99%	could activate	
O=C(O)CN(CCN(CC(=O)O)CC(=O)O)CC(=O)O [EDTA]	88.65 ± 1.62%	obviously inhibited	
[Fe+2] [Fe^2+]	25.33 ± 0.46%	obviously inhibited	Relative Activity (%) of Xyl7 (Xyl7; listed as Fe^3+): 90.41 ± 3.36%
[K+] [K^+]	125.6 ± 11.98%	could activate	increase for the activity of the enzyme (Xyl7): about 20%
[Mg+2] [Mg^2+]	101.53 ± 3.02%	no obvious action	
[Mn+2] [Mn^2+]	125.73 ± 7.8%	could activate	increase for the activity of the enzyme (Xyl7): about 20%
[Ni+2] [Ni^2+]	44.25 ± 4.98%	obviously inhibited	
[Zn+2] [Zn^2+]	64.88 ± 1.36%	obviously inhibited	
B1			specific activity by the standard enzymatic activity detection steps of Example 3 [1]: 8775 U/mg; optimum temperature and tolerance on temperature [2]: almost identical to those of Xyl7
B2			specific activity by the standard enzymatic activity detection steps of Example 3 [1]: 8560 U/mg
